Measured values as given in patent US8952024B2, “Herbicidal pyrimidone derivatives” (E I du Pont de Nemours and Company, priority 2009, dated 2015).

How the values were obtained:
Type in all cases: in vivo
[1] = test system: bluegrass (annual bluegrass, Poa annua); test: Test C plant response; settings: Preemergence, scale 0 to 100
[2] = test system: field violet (Viola arvensis); test: Test C plant response; settings: Preemergence, scale 0 to 100
[3] = test system: deadnettle (henbit deadnettle, Lamium amplexicaule); test: Test C plant response; settings: Preemergence, scale 0 to 100
[4] = test system: oilseed rape (Brassica napus); test: Test C plant response; settings: Preemergence, scale 0 to 100
[5] = test system: pigweed (Amaranthus retroflexus); test: Test C plant response; settings: Preemergence, scale 0 to 100
[6] = test system: spring barley (Hordeum vulgare); test: Test C plant response; settings: Preemergence, scale 0 to 100
[7] = test system: spring wheat (Triticum aestivum); test: Test C plant response; settings: Preemergence, scale 0 to 100
[8] = test system: wild mustard (Sinapis arvensis); test: Test C plant response; settings: Preemergence, scale 0 to 100
[9] = test system: winter wheat (Triticum aestivum); test: Test C plant response; settings: Preemergence, scale 0 to 100
[10] = test system: barnyardgrass (Echinochloa crus-galli); test: Test E flooded paddy rice and weeds; settings: applied to paddy water, 21 days
From the text: (§1) Three plastic pots (ca. 16-cm diameter) for each application were partially filled with sterilized Tama silt loam soil comprising a 35:50:15 ratio of sand, silt and clay and 2.6% organic matter. Separate plantings for each of the three pots were as follows. Seeds from the U.S. of ducksalad (Heteranthera limosa), sedge (smallflower umbrella sedge, Cyperus difformis), ricefield bulrush (Scirpus mucronatus) and redstem (purple redstem, Ammannia coccinea), were planted into one 16-cm pot for each rate. Seeds from the U.S. of flatsedge (rice flatsedge, Cyperus iria), sprangletop (bearded (i.e. Brdd.) sprangletop, Leptochloa fascicularis), one stand of 9 or 10 water seeded rice seedlings (Oryza sativa cv. ‘Japonica—M202’), and two stands of 3 or 4 transplanted rice seedlings (Oryza sativa cv. ‘Japonica—M202’) were planted into one 16-cm pot for each rate. Seeds from the U.S. of barnyardgrass (Echinochloa crus-galli), late watergrass (Echinochloa oryzicola), early watergrass (Echinochloa oryzoides) and junglerice (Echinochloa colona) were planted into one 16-cm pot for each rate. Plantings were sequential so that crop and weed species were at the 2.0 to 2.5-leaf stage at time of treatment.
(§2) Potted plants were grown in a greenhouse with day/night temperature settings of 30/27° C., and supplemental balanced lighting was provided to maintain a 16-hour photoperiod. Test pots were maintained in the greenhouse until test completion.
(§3) At time of treatment, test pots were flooded to 3 cm above the soil surface, treated by application of test compounds directly to the paddy water, and then maintained at that water depth for the duration of the test. Effects of treatments on rice and weeds were visually evaluated by comparison to untreated controls after 21 days. Plant response ratings, summarized in Table E, are based on a scale of 0 to 100 where 0 is no effect and 100 is complete control. A dash (-) response means no test result.

[11] = test system: ducksalad (Heteranthera limosa); test: Test E flooded paddy rice and weeds; settings: applied to paddy water, 21 days, scale 0 to 100
From the text: as §1, §2, §3

[12] = test system: early watergrass (Echinochloa oryzoides); test: Test E flooded paddy rice and weeds; settings: applied to paddy water, 21 days, scale 0 to 100
From the text: as §1, §2, §3

[13] = test system: flatsedge (rice flatsedge, Cyperus iria); test: Test E flooded paddy rice and weeds; settings: applied to paddy water, 21 days, scale 0 to 100
From the text: as §1, §2, §3

[14] = test system: junglerice (Echinochloa colona); test: Test E flooded paddy rice and weeds; settings: applied to paddy water, 21 days, scale 0 to 100
From the text: as §1, §2, §3

[15] = test system: late watergrass (Echinochloa oryzicola); test: Test E flooded paddy rice and weeds; settings: applied to paddy water, 21 days, scale 0 to 100
From the text: as §1, §2, §3

[16] = test system: redstem (purple redstem, Ammannia coccinea); test: Test E flooded paddy rice and weeds; settings: applied to paddy water, 21 days, scale 0 to 100
From the text: as §1, §2, §3

[17] = test system: ricefield bulrush (Scirpus mucronatus); test: Test E flooded paddy rice and weeds; settings: applied to paddy water, 21 days, scale 0 to 100
From the text: as §1, §2, §3

[18] = test system: sedge (smallflower umbrella sedge, Cyperus difformis); test: Test E flooded paddy rice and weeds; settings: applied to paddy water, 21 days, scale 0 to 100
From the text: as §1, §2, §3

[19] = test system: sprangletop (bearded (i.e. Brdd.) sprangletop, Leptochloa fascicularis); test: Test E flooded paddy rice and weeds; settings: applied to paddy water, 21 days, scale 0 to 100
From the text: as §1, §2, §3

[20] = test system: transplanted rice seedlings (Oryza sativa cv. ‘Japonica—M202’); test: Test E flooded paddy rice and weeds; settings: applied to paddy water, 21 days, scale 0 to 100
From the text: as §1, §2, §3

[21] = test system: water seeded rice seedlings (Oryza sativa cv. ‘Japonica—M202’); test: Test E flooded paddy rice and weeds; settings: applied to paddy water, 21 days, scale 0 to 100
From the text: as §1, §2, §3

With O=C1CCCC(O)=C1C(=O)c1cnc(-c2ccccc2)n(-c2ccccc2)c1=O [Compound 2, 5-[(2-hydroxy-6-oxo-1-cyclohexen-1-yl)carbonyl]-2,3-diphenyl-4(3H)-pyrimidinone] the “Plant response rating: Bluegrass” value ([1]; 62 g ai/ha) was 0, the “Plant response rating: Bluegrass” value ([1]; 125 g ai/ha) was 0 and the “Plant response rating: Bluegrass” value ([1]; 16 g ai/ha) was 0. The “Plant response rating: Bluegrass” value ([1]; 31 g ai/ha) was 0, the “Plant response rating: Field Violet” value ([2]; 62 g ai/ha) was 0 and the “Plant response rating: Field Violet” value ([2]; 125 g ai/ha) was 0. For the same compound, the “Plant response rating: Field Violet” value ([2]; 16 g ai/ha) was 0, the “Plant response rating: Field Violet” value ([2]; 31 g ai/ha) was 0 and the “Plant response rating: Deadnettle” value ([3]; 62 g ai/ha) was 95. For the same compound, the “Plant response rating: Deadnettle” value ([3]; 125 g ai/ha) was 98, the “Plant response rating: Deadnettle” value ([3]; 16 g ai/ha) was 0 and the “Plant response rating: Deadnettle” value ([3]; 31 g ai/ha) was 75. The “Plant response rating: Oilseed Rape” value ([4]; 62 g ai/ha) was 35, the “Plant response rating: Oilseed Rape” value ([4]; 125 g ai/ha) was 65 and the “Plant response rating: Oilseed Rape” value ([4]; 16 g ai/ha) was 0. The “Plant response rating: Oilseed Rape” value ([4]; 31 g ai/ha) was 20, the “Plant response rating: Pigweed” value ([5]; 62 g ai/ha) was 65 and the “Plant response rating: Pigweed” value ([5]; 125 g ai/ha) was 85. The “Plant response rating: Pigweed” value ([5]; 16 g ai/ha) was 0, the “Plant response rating: Pigweed” value ([5]; 31 g ai/ha) was 20 and the “Plant response rating: Barley, Spring” value ([6]; 62 g ai/ha) was 0. The “Plant response rating: Barley, Spring” value ([6]; 125 g ai/ha) was 0, the “Plant response rating: Barley, Spring” value ([6]; 16 g ai/ha) was 0 and the “Plant response rating: Barley, Spring” value ([6]; 31 g ai/ha) was 0. The “Plant response rating: Wheat, Spring” value ([7]; 62 g ai/ha) was 0, the “Plant response rating: Wheat, Spring” value ([7]; 125 g ai/ha) was 0 and the “Plant response rating: Wheat, Spring” value ([7]; 16 g ai/ha) was 0. For the same compound, the “Plant response rating: Wheat, Spring” value ([7]; 31 g ai/ha) was 0, the “Plant response rating: Mustard, Wild” value ([8]; 62 g ai/ha) was 5 and the “Plant response rating: Mustard, Wild” value ([8]; 125 g ai/ha) was 35. For the same compound, the “Plant response rating: Mustard, Wild” value ([8]; 16 g ai/ha) was 0, the “Plant response rating: Mustard, Wild” value ([8]; 31 g ai/ha) was 0 and the “Plant response rating: Wheat, Winter” value ([9]; 62 g ai/ha) was 0. The “Plant response rating: Wheat, Winter” value ([9]; 125 g ai/ha) was 0, the “Plant response rating: Wheat, Winter” value ([9]; 16 g ai/ha) was 0 and the “Plant response rating: Wheat, Winter” value ([9]; 31 g ai/ha) was 0.

COc1cccc(-n2c(-c3ccccc3)ncc(C(=O)C3=C(O)CCCC3=O)c2=O)c1 [Compound 19] was tested, and the “Plant response rating, Barnyardgrass, Flood” value ([10]; 64 g ai/ha, scale 0 to 100) was 60, the “Plant response rating, Barnyardgrass, Flood” value ([10]; 125 g ai/ha, scale 0 to 100) was 60 and the “Plant response rating, Barnyardgrass, Flood” value ([10]; 250 g ai/ha, scale 0 to 100) was 70. For the same compound, the “Plant response rating, Barnyardgrass, Flood” value ([10]; 500 g ai/ha, scale 0 to 100 (0 no effect, 100 complete control)) was 85, the “Plant response rating, Ducksalad, Flood” value ([11]; 64 g ai/ha) was 85 and the “Plant response rating, Ducksalad, Flood” value ([11]; 125 g ai/ha) was 95. The “Plant response rating, Ducksalad, Flood” value ([11]; 250 g ai/ha) was 100, the “Plant response rating, Ducksalad, Flood” value ([11]; 500 g ai/ha) was 100 and the “Plant response rating, Watergrass, Early, Flood” value ([12]; 64 g ai/ha) was 20. The “Plant response rating, Watergrass, Early, Flood” value ([12]; 125 g ai/ha) was 45, the “Plant response rating, Watergrass, Early, Flood” value ([12]; 250 g ai/ha) was 65 and the “Plant response rating, Watergrass, Early, Flood” value ([12]; 500 g ai/ha) was 85. For the same compound, the “Plant response rating, Flatsedge, Rice, Flood” value ([13]; 64 g ai/ha) was 40, the “Plant response rating, Flatsedge, Rice, Flood” value ([13]; 125 g ai/ha) was 40 and the “Plant response rating, Flatsedge, Rice, Flood” value ([13]; 250 g ai/ha) was 95. For the same compound, the “Plant response rating, Flatsedge, Rice, Flood” value ([13]; 500 g ai/ha) was 100, the “Plant response rating, Junglerice, Flood” value ([14]; 64 g ai/ha) was 0 and the “Plant response rating, Junglerice, Flood” value ([14]; 125 g ai/ha) was 50. The “Plant response rating, Junglerice, Flood” value ([14]; 250 g ai/ha) was 65, the “Plant response rating, Junglerice, Flood” value ([14]; 500 g ai/ha) was 80 and the “Plant response rating, Watergrass, Late, Flood” value ([15]; 64 g ai/ha) was 0. For the same compound, the “Plant response rating, Watergrass, Late, Flood” value ([15]; 125 g ai/ha) was 45, the “Plant response rating, Watergrass, Late, Flood” value ([15]; 250 g ai/ha) was 60 and the “Plant response rating, Watergrass, Late, Flood” value ([15]; 500 g ai/ha) was 55. For the same compound, the “Plant response rating, Redstem, Flood” value ([16]; 64 g ai/ha) was 0, the “Plant response rating, Redstem, Flood” value ([16]; 125 g ai/ha) was 90 and the “Plant response rating, Redstem, Flood” value ([16]; 250 g ai/ha) was 90. The “Plant response rating, Redstem, Flood” value ([16]; 500 g ai/ha) was 85, the “Plant response rating, Bulrush, Ricefield, Flood” value (“Plant response rating, Bulrush” for short) ([17]; 64 g ai/ha) was 50 and the “Plant response rating, Bulrush” value ([17]; 125 g ai/ha) was 70. For the same compound, the “Plant response rating, Bulrush” value ([17]; 250 g ai/ha) was 70, the “Plant response rating, Bulrush” value ([17]; 500 g ai/ha) was 75 and the “Plant response rating, Sedge, Umbrella, Flood” value (“Plant response rating, Sedge” below) ([18]; 64 g ai/ha) was 90. For the same compound, the “Plant response rating, Sedge” value ([18]; 125 g ai/ha) was 100, the “Plant response rating, Sedge” value ([18]; 250 g ai/ha) was 100 and the “Plant response rating, Sedge” value ([18]; 500 g ai/ha) was 100. The “Plant response rating, Sprangletop, Brdd., Flood” value ([19]; 64 g ai/ha) was 75, the “Plant response rating, Sprangletop, Brdd., Flood” value ([19]; 125 g ai/ha) was 95 and the “Plant response rating, Sprangletop, Brdd., Flood” value ([19]; 250 g ai/ha) was 100. For the same compound, the “Plant response rating, Sprangletop, Brdd., Flood” value ([19]; 500 g ai/ha) was 100, the “Plant response rating, Rice, Transplanted, Flood” value ([20]; 64 g ai/ha) was 0 and the “Plant response rating, Rice, Transplanted, Flood” value ([20]; 125 g ai/ha) was 35. For the same compound, the “Plant response rating, Rice, Transplanted, Flood” value ([20]; 250 g ai/ha) was 40, the “Plant response rating, Rice, Transplanted, Flood” value ([20]; 500 g ai/ha) was 65 and the “Plant response rating, Rice, Water Seeded, Flood” value ([21]; 64 g ai/ha) was 0. For the same compound, the “Plant response rating, Rice, Water Seeded, Flood” value ([21]; 125 g ai/ha) was 40, the “Plant response rating, Rice, Water Seeded, Flood” value ([21]; 250 g ai/ha) was 70 and the “Plant response rating, Rice, Water Seeded, Flood” value ([21]; 500 g ai/ha) was 95.
